Laboratory results published in PubChem BioAssay AID179 (DTP/NCI, 2004).
“And” between values parts separate entries of the source, which are not always exact repeats. Identical values can stand only once. The source made the active and inactive calls.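 The calls were made as follows: active = compounds giving half or more protection of infected cells from virus-caused growth loss, again on retest; inactive = the rest.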 Where a SMILES comes first, the peptide text is derived from it. [ ]: non-standard residue; d: D form. ΔPro = O=C(O)[CH]1C=CCN1

Test system: CEM cells HIV-1 protection, formazan growth assay
Experiment: NCI AIDS Antiviral Assay
Conditions: for IC50: measured here: growth of uninfected CEM cells
Outline: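 Screen of anti-HIV-1 activity in human CEM cells using a formazan-based growth measurement at five drug concentrations. Hits with 50% or greater protection were repeated, and confirmation required reproducible complete protection.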

Cc1cc(C)c(C2[C@H]3C(=O)N(c4ccc(Cc5ccc(N6C(=O)[C@@H]7ON(c8ccccc8)C(c8c(C)cc(C)cc8C)[C@@H]7C6=O)cc5)cc4)C(=O)[C@H]3ON2c2ccccc2)c(C)c1 (stereo not given in full)
EC50: > 22.4 µM
IC50: > 22.4 µM

O=C1/C(=C/c2ccccc2)CN(C(=O)/C=C/c2ccccc2)C/C1=C\c1ccccc1
EC50: > 100 µM
IC50: 14.5 µM

c1ccc(N=C2C(=Nc3ccccc3)N(C3CCCCC3)C(=NC3CCCCC3)N2c2ccccc2)cc1
EC50: > 200 µM
IC50: > 200 µM

CCOC(=O)C(C)(c1c[nH]c2ccccc12)c1c[nH]c2ccccc12
EC50: > 200 µM
IC50: 19.5 µM

N#CC(c1ccc(Cl)cc1)c1cccc(Cl)n1 (stereo not given)
EC50: > 70.8 µM
IC50: > 70.8 µM

COC1N(C2C=CC(CO)O2)C(=O)NC(=O)C1(C)Cl (stereo not given)
EC50: 468 µM
IC50: 1020 µM

O=S(=O)(c1ccc(NC(=S)Nc2ccccc2)cc1)c1ccc(NC(=S)Nc2ccccc2)cc1
EC50: > 200 µM
IC50: > 200 µM

O=C1C=Cc2noc3cccc1c23
outcome: inactive

CC1=CC2OC3CC4OC(=O)/C=C/C=C/C(C(C)O)OCC(O)C(C)CC(=O)OCC2(CC1O)C4(C)C31CO1 (stereo not given)
EC50: > 0.2 µM
IC50: 0.0631 µM

N#CC12C3C4C5C3C1n1c(=O)n(-c3ccccc3)c(=O)n1C5C42 (stereo not given)
EC50: > 200 µM
IC50: > 200 µM

CC1(C)OC(=O)CC2(C)OC12 (stereo not given)
EC50: > 200 µM
IC50: > 200 µM

NC(=O)NN/C=C(/C=Nc1ccccc1)[N+](=O)[O-]
EC50: > 105 µM
IC50: > 105 µM

CCCCCCCCCCCCCC(=O)NCO
outcome: inactive

COc1nc2nccnc2c(=O)n1C
EC50: > 200 µM
IC50: > 200 µM

C[C@]12CC[C@@H]3c4cc(OCC(F)(F)F)c(O)cc4/C(=N/O)C[C@H]3[C@@H]1CC[C@@H]2O
EC50: > 0.2 µM
IC50: 0.0933 µM

COc1ccc(/C=C2/SC(c3ccccc3)N(NC(=O)CCCCCCCCC(=O)NN3C(=O)/C(=C\c4ccc(OC)c(OC)c4)SC3c3ccccc3)C2=O)cc1OC (stereo not given)
EC50: > 200 µM
IC50: 91.2 µM

Nc1c(S(=O)(=O)O)cc2cc(S(=O)(=O)O)ccc2c1N=Nc1ccc(/C=C/c2ccc(N=Nc3c(N)c(S(=O)(=O)O)cc4cc(S(=O)(=O)O)ccc34)cc2S(=O)(=O)O)c(S(=O)(=O)O)c1
EC50: 2.82 µM
IC50: 79.4 µM

NCCCCC(NC(=O)C(CO)NC(=O)C(N)Cc1cnc[nH]1)C(=O)NC(Cc1ccccc1)C(=O)NC(Cc1c[nH]c2ccccc12)C(=O)NC(Cc1c[nH]c2ccccc12)C(N)=O (stereo not given) (H-HSKFWW-NH2; configuration not given here)
EC50: > 50.1 µM
IC50: > 50.1 µM

S=C1N(c2ccc(Cl)cc2)C2=C(N=Nc3cc(Cl)ccc3Cl)C(=Nc3ccccc3S2)N1c1ccccn1
EC50: > 40.7 µM
IC50: > 40.7 µM

CC(=O)OCC(OC(C)=O)C(OC(C)=O)C(OC(C)=O)C(C=NN(C(C)=O)S(=O)(=O)c1ccc(/C=C2\NC(=O)NC2=O)cc1)OC(C)=O (stereo not given)
EC50: > 200 µM
IC50: 87.1 µM and 117 µM

O=C(c1cccs1)N(C(=S)N1CCN(c2ccccn2)CC1)C1CCCCC1
EC50: > 12.6 µM
IC50: 12.3 µM

OCCN1CCN(CC/C=C2/c3ccccc3Sc3ccc(Cl)cc32)CC1
EC50: > 200 µM
IC50: 7.41 µM

CC[S+](C)c1ccc(-c2c3nc(c(-c4ccc([S+](C)CC)cc4)c4ccc([nH]4)c(-c4ccc([S+](C)CC)cc4)c4nc(c(-c5ccc([S+](C)CC)cc5)c5ccc2[nH]5)C=C4)C=C3)cc1 (stereo not given)
EC50: 4.79 µM
IC50: 13.2 µM

O=C1CC2C=CC(O)C(C1)C2 (stereo not given)
EC50: > 200 µM
IC50: > 200 µM

COc1ccc2[nH]c3c(c2c1)CC(=S)N1CCCC(CC3=O)C1 (stereo not given)
EC50: > 200 µM
IC50: 61.7 µM

CCC/C=C/C=C\C(=O)O[C@@H]1[C@@H](C)[C@]2(O)[C@@H]3C=C(C)C(=O)[C@H]3CC(COC(C)=O)=C[C@H]2[C@@H]2C(C)(C)[C@]12OC(C)=O
outcome: inactive

c1ccc(COC[C@H]2O[C@@H](c3ccccc3)C[C@@H](OCc3ccccc3)C2OCc2ccccc2)cc1 (stereo not given in full)
EC50: > 200 µM
IC50: > 200 µM

O=C(CNc1ccc2c(=S)c3ccccc3[nH]c2c1)Nc1ccccc1-c1ccccc1NC(=O)CNc1ccc2c(=S)c3ccccc3[nH]c2c1
EC50: > 13.8 µM
IC50: 4.47 µM

CN1C(=O)CC(=O)N1/C(=C/c1ccccc1)c1ccccc1
EC50: > 200 µM
IC50: 155 µM

C[C@]12CCc3nn(-c4ccccc4)nc3C1CC[C@@H]1C2CC[C@]2(C)NC(=O)CCC12 (stereo not given in full)
EC50: > 23.4 µM
IC50: > 23.4 µM

NC(=O)c1csc(C2OC(COP(=O)(O)CP(=O)(O)OCC3OC(n4cnc5c(N)ncnc54)C(O)C3O)C(O)C2O)n1 (stereo not given)
EC50: > 151 µM
IC50: 91.2 µM

COc1ccc(C(F)(F)F)cc1NC(=O)O/N=C(/Cl)C(C)C
EC50: > 20 µM
IC50: 3.72 µM

C[P+]1(CCc2ccc(Cl)cc2)CC=CC1
outcome: inactive

O=C(O)C1C=CCN1C(=O)C1C=CCN1C(=O)C1C=CCN1 (stereo not given) (H-[ΔPro]-[ΔPro]-[ΔPro]-OH; configuration not given here)
EC50: > 200 µM
IC50: 166 µM

CCN(CC)Cc1nc2sc3c(c2c(=O)n1-c1ccccc1)CCCC3
EC50: > 200 µM
IC50: 39.8 µM

COc1cc2c(cc1OC)C(=O)Cc1ccc3c(c1CNCC2)OCO3
EC50: > 141 µM
IC50: > 141 µM

N#Cc1c(-c2ccc([N+](=O)[O-])cc2)c(C#N)c(=O)n(NS(=O)(=O)c2ccccc2)c1S
EC50: > 200 µM
IC50: 16.6 µM

N#C/C(=C\c1cc(Cl)cc(Cl)c1)c1ccccn1
EC50: > 200 µM
IC50: 8.91 µM

CC(C)C1NC(=O)CC(c2ccccc2)N(N=O)C1c1ccccc1 (stereo not given)
EC50: > 77.6 µM
IC50: > 77.6 µM

CCOc1cc2c(cnc3c4cc(OC)c(OC)cc4ccc23)cc1OC
EC50: > 27.5 µM
IC50: > 27.5 µM

COc1cccc(-c2nc(-c3cnccn3)n(Cc3ccccc3)n2)c1
EC50: > 200 µM
IC50: > 200 µM

O=C(O)CCN(CCC(=O)O)c1ccc(/C=C2\SC(=S)NC2=O)cc1
EC50: > 200 µM
IC50: 170 µM

Cc1c(OCc2cccc3ccccc23)ccc2c(=O)cc(S)oc12
EC50: > 200 µM
IC50: 93.3 µM

O=C(CCCCCCCCC(=O)N1C(=O)CC(=O)N(c2ccc(Cl)cc2)C1=S)N1C(=O)CC(=O)N(c2ccc(Cl)cc2)C1=S
EC50: > 200 µM
IC50: 81.3 µM

C=CCc1ccc(Oc2cc(CC=C)c3c(c2O)O[C@@H](CO)[C@H]3c2ccc(O)c(-c3cc(CC=C)ccc3O)c2)cc1
EC50: > 100 µM
IC50: > 100 µM

C[C@H](OCc1ccccc1)C(=O)N1CCS(=O)(=O)N2CCC[C@H]2C1=O
EC50: > 676 µM
IC50: > 676 µM

O=c1nc2ccc3[nH]c(O)c4ccc1c2c34
EC50: > 200 µM
IC50: 178 µM

CC1NC(=O)CC(c2ccccc2)N(N=O)C1c1ccccc1 (stereo not given)
outcome: inactive

O=c1cc2n(c(=O)[nH]1)C1OC(C(O)C1O)[C@H]2CCO (stereo not given in full)
outcome: inactive

O=C(c1nc2ccc(Cl)cc2[nH]c1=O)C(O)c1ccccc1 (stereo not given)
EC50: > 575 µM
IC50: 11.5 µM

Cc1cc(C)c(O)c(CN(Cc2ccccn2)Cc2ccccn2)c1
outcome: inactive

C=CCN1CCC2(CC1)NC(=O)c1ccccc1O2
EC50: > 200 µM
IC50: > 200 µM

CCOC(=O)c1cc(OC(=O)CC)c2c(OC)ccc(OC)c2c1
outcome: inactive

O=C(CCCN1CCC2(CC1)NC(=O)c1ccccc1O2)c1ccc(F)cc1
EC50: > 200 µM
IC50: > 200 µM

NCCN1CC2CCC(CC2)C1
EC50: > 200 µM
IC50: 182 µM

CCOC(=O)C(=Cc1ccccc1[N+](=O)[O-])C(=O)OCC
EC50: > 324 µM
IC50: 5.89 µM

NC(=N\N=C/c1ccc(Cl)c(Cl)c1)/C(N)=N\N=C/c1ccc(Cl)c(Cl)c1
outcome: inactive

COC1/C=C/OC2(C)Oc3c(C)c(O)c4c(O)c(c(C=Nc5cccc(C)c5)c(O)c4c3C2=O)NC(=O)C(C)=C/C=C/C(C)C(O)C(C)C(O)C(C)C(OC(C)=O)C1C (stereo not given)
EC50: > 174 µM
IC50: 28.8 µM

CN1CCCCC1CCN1c2ccccc2Sc2ccc(S(C)=O)cc21 (stereo not given)
EC50: 166 µM
IC50: 219 µM

O=C1CCCn2c(nc3ccccc32)N1
EC50: > 200 µM
IC50: > 200 µM

CCCCCC1OC1(c1cc(Br)c(OC)c(C(=O)OC)c1)c1cc(Br)c(OC)c(C(=O)OC)c1 (stereo not given)
EC50: > 200 µM
IC50: 67.6 µM

CCNC(=O)Sc1ccccc1C(=O)NCCC(N)=O
EC50: 1.1 µM
IC50: 102 µM

Cc1cccc(N2C(=O)C(=O)C(c3nc4ccccc4s3)/C(=N/NC(=S)NN)C2=O)c1C (stereo not given)
EC50: > 269 µM
IC50: > 269 µM

CCn1cnnc1-c1nsc2ccccc12
EC50: > 81.3 µM
IC50: 75.9 µM

Cc1cn(CC(CO)CCO)c(=O)[nH]c1=O (stereo not given)
EC50: > 1100 µM
IC50: > 1100 µM

CC(C)(C)OC(=O)N1CCCC1C(=O)NC(c1ccccc1)c1ccccc1 (stereo not given)
EC50: > 200 µM
IC50: > 200 µM

Cc1ccc(S(=O)(=O)Oc2nc3ccccc3nc2N(S(=O)(=O)c2ccc(C)cc2)S(=O)(=O)c2ccc(C)cc2)cc1
EC50: > 200 µM
IC50: 17.4 µM

C/C(CN1C(=O)c2ccccc2C1=O)=N\NS(C)(=O)=O
EC50: > 851 µM
IC50: 589 µM

CC[C@@H](C)[C@H]([C@H](CC(=O)N1CCC[C@@H]1[C@@H](OC)[C@H](C)C(=O)N[C@H](Cc1ccccc1)c1nccs1)OC)N(C)C(=O)[C@H](NC(=O)[C@@H](C(C)C)N(C)C)C(C)C
EC50: > 316 µM
IC50: 0.1 µM

c1ccc(N=C2c3ccccc3C3=NCCCN32)cc1
EC50: > 100 µM
IC50: > 100 µM

Cc1ccc2nc(C(C)C)c(=O)[nH]c2c1
EC50: > 200 µM
IC50: > 200 µM

O=C(/C=C/c1ccccc1)c1ccc(Oc2ccccc2)cc1
EC50: > 200 µM
IC50: 23.4 µM

CCOC(=O)C(C)(C(C)=O)c1nc(=S)[nH]c(=S)[nH]1 (stereo not given)
EC50: > 200 µM
IC50: 95.5 µM

CC(C)=CCC[C@@H](C)[C@H]1CC[C@@]2(C)[C@@H]3CC[C@H]4C(C)(C)[C@@H](O)CC[C@@]45C[C@@]35CC[C@]12C
EC50: > 200 µM
IC50: 126 µM

COC(=O)C1Cc2c(n(C)c3ccccc23)C(CCC(=O)O)N1Cc1ccccc1 (stereo not given)
outcome: inactive

O=C(/C=C/c1cccs1)c1ccc(Cl)cc1
outcome: inactive

C/C(O)=C(\C=N\C(N)=S)C(=O)Nc1ccc(Cl)cc1
EC50: > 200 µM
IC50: > 100 µM

CC(C)(C)OC(=O)N(CCCCNC(=O)OCc1ccccc1)CCCNC(=O)OCc1ccccc1
EC50: > 200 µM
IC50: 4.47 µM
